Results from patent US5736629A, “Herbicide resistant rice” (priority 1997, dated 1998).

Columns and labels:
[1] = molecular target: T1, AHAS (acetohydroxyacid synthase) in enzyme extracts from normal rice variety Lemont (Oryza sativa subsp. japonica, UniProt Q6K2E8); experiment: AHAS enzyme assay, extract from rice variety Lemont; assay type: biochemical
T1 construct: 40.0 grams (fresh weight) of tissue were extracted in the same manner for each of the three varieties; from tissue; host or cells: stem tissue of greenhouse-grown rice seedlings, variety Lemont (leaf blades removed)
T1 sequence (Q6K2E8 40-644 limits assumed): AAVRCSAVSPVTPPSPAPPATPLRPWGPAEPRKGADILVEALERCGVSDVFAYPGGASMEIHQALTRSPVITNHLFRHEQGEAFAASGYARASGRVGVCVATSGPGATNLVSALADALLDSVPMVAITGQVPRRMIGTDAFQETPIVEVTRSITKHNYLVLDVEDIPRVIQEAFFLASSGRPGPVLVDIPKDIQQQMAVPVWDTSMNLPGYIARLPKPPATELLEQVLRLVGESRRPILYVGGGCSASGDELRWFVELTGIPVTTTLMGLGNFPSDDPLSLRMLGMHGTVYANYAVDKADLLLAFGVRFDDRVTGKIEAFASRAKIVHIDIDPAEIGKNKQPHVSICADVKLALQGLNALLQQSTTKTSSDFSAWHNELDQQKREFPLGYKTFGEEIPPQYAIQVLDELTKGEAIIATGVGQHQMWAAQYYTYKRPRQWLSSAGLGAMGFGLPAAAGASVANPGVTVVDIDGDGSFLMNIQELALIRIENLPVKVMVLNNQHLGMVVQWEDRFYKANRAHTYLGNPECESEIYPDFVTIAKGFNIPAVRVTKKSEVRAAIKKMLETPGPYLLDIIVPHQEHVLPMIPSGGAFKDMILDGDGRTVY
Source text: (§1) The herbicide resistance of the AHAS enzyme from the ATCC 75295 rice line was compared to the resistance of the AHAS enzymes from the rice varieties "Lemont" and "Mercury," the varieties that were the ancestors of this rice line. The procedures used to assay the activity of acetohydroxyacid synthase were substantially as described in B. K. Singh et al., "Assay of Acetohydroxyacid Synthase," Analytical Biochemistry, vol. 171, pp. 173-179 (1988), except as noted. In the first paragraph of Singh's "Materials and Methods," instead of corn suspension culture cells, stem tissues from greenhouse-grown rice seedlings at the four-leaf stage of development were used. Leaf blades were removed, and 40.0 grams (fresh weight) of tissue were extracted in the same manner for each of the three varieties. […] Pursuit herbicide (imazethapyr) was included in the "standard reaction mixture" for the AHAS assay in the concentrations indicated in Table 1 below. Checks were made of direct acetoin formation during the enzyme assay. Each treatment was conducted with two replicates.

[2] = test system: progeny of the mutant rice plant (ATCC 97523); experiment: Subsequent greenhouse and field testing of progeny of the surviving plant; assay type: in vivo; conditions: herbicides applied either pre-emergence or post-emergence
Source text: (Imazamox is sold by American Cyanamid under the trade name Raptor, and has as active ingredient (+)-5-methoxymethyl-2-(4-isopropyl-4-methyl-5-oxo-2-imidazolin-2-yl) nicotinic acid. Imazameth is sold by American Cyanamid under the trade name Cadre, and has as active ingredient (±)-2-[4,5-dihydro-4-methyl-4-(1-methyl-ethyl)-5-oxo-1H-imidazol-2-yl]- 5-methyl-3-pyridinecarboxylicacid;alternatechemicalname (±)-2-(4-isopropyl-4-methyl-5-oxo-2-imidazolin-2-yl)-5-methylnicotinic acid). Imazapyr is sold by American Cyanamid under the trade name Arsenal, and has active ingredient 2-[4,5-dihydro-4-methyl-4-(1-methylethyl)-5-oxo-1H-imidazol-2-yl]-3-pyridinecarboxylic acid) This line is resistant to herbicides applied either pre-emergence or post-emergence.

[3] = test system: Non-Resistant Control rice plants (check varieties); experiment: Greenhouse test of plant vigor after imazethapyr, non-resistant controls; assay type: in vivo; conditions: for Rating of rice plant vigor: 36 days after treatment at 2-3 leaf stage, 10-point scale, 0 = dead plant, 10 = no visible injury
Source text: In the greenhouse tests, pots were planted with F3 seed from crosses between the two lines. Each pot was planted with seed from a single panicle from a single plant; each pot was therefore the equivalent of a headrow. A total of 140 pots were planted in this manner, along with 40 pots of various non-resistant genotypes for comparison. Imazethapyr was applied at the 2-3 leaf stage two weeks after planting, at rates equivalent to 0.063 lb. active ingredient (a.i.) per acre, 0.125 lb. a.i./acre, and 0.313 lb. a.i./acre.
Table 2 summarizes measurements taken 36 days after spraying rice at the 2-3 leaf stage of development.

[4] = molecular target: T2, AHAS (acetohydroxyacid synthase) in enzyme extracts from normal rice variety Mercury (Oryza sativa subsp. japonica, UniProt Q6K2E8); experiment: AHAS enzyme assay, extract from rice variety Mercury; assay type: biochemical
T2 construct: 40.0 grams (fresh weight) of tissue were extracted in the same manner for each of the three varieties; from tissue; host or cells: stem tissue of greenhouse-grown rice seedlings, variety Mercury (leaf blades removed)
T2 sequence (Q6K2E8 40-644 limits assumed): T1 sequence (Q6K2E8 40-644 limits assumed)
Source text: as §1

[5] = test system: single surviving plant derived from rice variety AS3510 treated with 0.5% EMS; experiment: Field screen of mutagenised rice seedlings, surviving plant; assay type: in vivo; conditions: imazethapyr 0.125 lb a.i. per acre (2X), 0.25% non-ionic surfactant; 3-4 leaf stage; about four weeks later
Source text: The second resistance mechanism resulted from inducing mutations in seeds of each of ten rice varieties. Mutations were induced by exposure either to gamma rays or to the chemical mutagen ethyl methanesulfonate (EMS). Ten-pound lots of seed of each variety were subjected to 25 k-rad of gamma irradiation from a Cobalt-60 source at the Nuclear Science Center, Louisiana State University, Baton Rouge, La. prior to planting. An additional ten pounds of seed of each variety was divided into three equal portions; and each portion was soaked for 16 hours in either 0.1%, 0.5%, or 1% EMS immediately prior to planting. Several hundred pounds of seed were harvested from plants grown from the seeds subjected to these mutagenic treatments.
The following spring the harvested seed was planted in strips in a field planting occupying a total of about three acres. At the 3-4 leaf stage of seedling development, herbicides were applied to screen for herbicide-resistant mutants. Half of the seedlings of each variety were sprayed with a 2X treatment of nicosulfuron, and half were sprayed with a 2X treatment of imazethapyr, in both cases by a tractor-mounted sprayer. Nicosulfuron was applied at the rate of 0.063 lb active ingredient (a.i.) per acre, and imazethapyr was applied at 0.125 lb a.i. per acre. Non-ionic surfactant (0.25%) was added to each spray solution. […]

Work on CCc1cnc(C2=NC(C)(C(C)C)C(=O)N2)c(C(=O)O)c1 (racemic) [imazethapyr, (±)-2-[4,5-dihydro-4-methyl-4-(1-methylethyl)-5-oxo-1H-imidazol-2-yl]-5-ethyl-3-pyridinecarboxylic acid] yielded an activity at 0.1 µM ([1]; imazethapyr 0.1 μM) of 102%, an activity at 1 µM ([1]; imazethapyr 1 μM) of 102% and an activity at 10 µM ([1]; imazethapyr 10 μM) of 87%. The activity at 100 µM ([1]; imazethapyr 100 μM) was 81%, the “Resistance of the rice line (in words)” value [2] was “resistance” and the “Rating of rice plant vigor” value ([3]; 0.063 lb. a.i./acre) was 0.33 ± 0.18. For the same compound, the “Rating of rice plant vigor” value ([3]; 0.125 lb. a.i./acre) was 0.12 ± 0.06, the “Rating of rice plant vigor” value ([3]; 0.313 lb. a.i./acre) was 0.15 ± 0.15 and the Mortality ([3]; check varieties, all treatments (0.063, 0.125, 0.313 lb. a.i./acre)) was 100%. The “Effect on plants (in words)” value ([3]; non-resistant rice, 0.063 pounds active ingredient per acre) was “completely killed”, the “Effect on plants (in words)” value ([3]; nonresistant controls, each of the nonzero rates (0.063, 0.125, 0.313 lb. a.i./acre)) was “killed” and the activity at 0.1 µM ([4]; imazethapyr 0.1 μM) was 100%. The activity at 1 µM ([4]; imazethapyr 1 μM) was 89%, the activity at 10 µM ([4]; imazethapyr 10 μM) was 64% and the activity at 100 µM ([4]; imazethapyr 100 μM) was 62%. The “Symptoms of injury (in words)” value [5] was “No symptoms of injury”.
